What all share (test): NCI tumour cell line growth inhibition, 48 h
The test system of assay [1] is DU-145 prostate.
The subject of assay [2] is HOP-62 NSCLC.
Assay [3] concerns HT29 colon.
The test system of assay [4] is NCI/ADR-RES ovarian.
The subject of assay [5] is OVCAR-5 ovarian.
Assay [6] concerns SF-539 CNS.
Assay [7] relates to SK-MEL-2 melanoma.
Assay [8] has as its system SW-620 colon.
Assay [9] relates to T-47D breast.
The test system of assay [10] is RPMI-8226 leukemia.

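These data come from cells grown in 96-well plates and exposed to compound for 48 hours at five concentrations. GI50: concentration for 50% inhibition of growth. Definition used: TGI = concentration required for complete inhibition of growth.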

Turning to `COc1ccc2c(c1)C(=O)/C(=C/c1cccc(OCC(=O)Nc3nc4c(s3)CCCC4)c1)O2`, the GI50 in [1] was 0.499 µM; in [2], 0.29 µM; in [3], 0.642 µM; in assay [4], 2.12 µM; in assay [5], 1.69 µM; in assay [6] it was 1.32 µM. Moreover, the GI50 was 0.577 µM in [7], 0.805 µM in [8] and 1.93 µM in assay [9]. Further, the TGI in assay [1] was determined as 1.22 µM; in assay [2], 10.4 µM; in [3], 1.8 µM; in assay [4], 6.37 µM; in [5], 3.61 µM; in assay [6], 2.69 µM. The TGI was found to be 1.34 µM in assay [7], 2.07 µM in [8] and 4.34 µM in assay [9].

On to `COc1ccc2nc(-c3cc(-c4cc(OC)c(OC)c(OC)c4)n[nH]3)[nH]c2c1`, for which the GI50 is 2.29 µM in assay [1]; 2.02 µM in assay [2]; 2.76 µM in [3]; 2.91 µM in assay [4]; 3.03 µM in assay [5]; 0.643 µM in [10]. Also, the GI50 was 2.42 µM in assay [6], 2.89 µM in assay [8] and 0.346 µM in assay [9]. The TGI in assay [1] is 8.28 µM; in assay [2], 5.77 µM; in assay [3], 16.2 µM; in assay [4], more than 100 µM; in assay [5], 12.6 µM; in assay [10], 2.53 µM. For the same compound, the TGI is 9.71 µM in assay [6], 11.1 µM in assay [8] and 1.92 µM in assay [9].

For the compound `Cc1nn(-c2nc3ccccc3s2)c(C)c1Oc1ccccc1O`, the GI50 was 7.17 µM in assay [1]; 10.6 µM in [2]; 4.95 µM in assay [3]; 3.6 µM in [4]; 12.5 µM in assay [5]; 8.13 µM in assay [10]. The GI50 in assay [6] was 2.52 µM; in assay [8] it was 4.79 µM; in assay [9] it was 8.63 µM. In addition, the TGI worked out at 20.1 µM in assay [1]; 23.7 µM in assay [2]; 20.3 µM in [3]; 23.3 µM in assay [4]; 25.7 µM in assay [5]; 34.8 µM in assay [10]. Further, the figures for the TGI in [6], in assay [8] and in assay [9] were 20.1 µM, 17.6 µM and 34.4 µM, respectively.

Regarding `CC1CC2(C)ON=C(c3ccccc3)N2c2ccccc2S1` (centres undefined), the GI50 in [1] is 54.5 µM; in [2], 56.7 µM; in [3], 27.9 µM; in assay [4], 17.6 µM; in assay [5], 34.3 µM; in assay [10] it was 20.4 µM. Besides, the values for the GI50 in assay [6], in assay [8] and in assay [9] were 22.4 µM, 39.3 µM and 58.5 µM, respectively. The TGI was found to be 80 µM in [3], 46.6 µM in assay [4], 69.2 µM in assay [10] and 51.6 µM in assay [6].

Consider `CCOC12OC3=C(CC1CC1=C(CCC1=O)O2)C(=O)CC3` (centres undefined), for which the TGI in assay [2], in assay [3], in assay [5], in assay [10], in [6] and in assay [7] was more than 100 µM throughout. The TGI in assay [8] was more than 100 µM.

For the compound `CCCN(CCCCC(NC(C)=O)C(=O)NCc1ccccc1)C(=O)N(C)N=O` (centres undefined), the TGI in [2], in assay [3], in [5], in assay [10], in assay [6] and in assay [7] was more than 100 µM throughout. In [8], the TGI was more than 100 µM.

On to `CCOC(=O)/C(O)=C(/c1n[nH]c(=O)c2ccccc12)[N+](=O)[O-]`, for which the TGI in assay [2], in [3], in assay [5], in assay [10], in [6] and in assay [7] was more than 100 µM in each case. The same compound had a TGI in assay [8] of more than 100 µM.

In the case of `COc1cc2nc(-c3cnc(N(C)C)nc3)nc(NC3CCN(Cc4ccccc4)CC3)c2cc1OC`, the GI50 was 1.57 µM in assay [1]; 1.69 µM in assay [2]; 1.08 µM in assay [3]; 1.78 µM in assay [5]; 1.22 µM in assay [10]; 1.72 µM in [6]. Also, the GI50 was 1.8 µM in [7], 0.442 µM in [8] and 1.81 µM in [9]. For the same compound, the TGI in assay [1] was found to be 3.05 µM; in assay [2] it was 3.48 µM; in assay [3], 2.54 µM; in assay [5], 3.46 µM; in assay [10], 3.67 µM; in assay [6], 3.25 µM. The TGI stood at 3.45 µM in assay [7], 2 µM in [8] and 4.14 µM in assay [9].

As to `Cc1nc(Cl)nc(Cl)c1C`, the TGI in assay [2], in assay [3], in [4], in assay [5], in [10] and in assay [6] was more than 100 µM in each case. The TGI in [7] and in [8] was more than 100 µM in each case.

As for `CCOc1c(Br)cc(C2C(C(=O)OC)=CN(C)C=C2C(=O)OC)cc1OC`, the GI50 in [1] is more than 100 µM; in [2], more than 100 µM; in assay [3], 45.6 µM; in assay [4] it was 43.6 µM; in assay [5], more than 100 µM; in assay [10], 45.5 µM. Besides, the GI50 in assay [6] was more than 100 µM; in assay [8] it was 38.6 µM; in assay [9] it was 45.9 µM. Besides, the TGI in [1], in assay [2], in assay [3], in assay [4], in assay [5] and in assay [10] was more than 100 µM each time. In addition, the TGI in assay [6], in [8] and in assay [9] was more than 100 µM throughout.

For `COc1cc(/C=C2/C(=O)N(C(=O)OC(C)C)C(Cc3cc(OC)c(OC)c(C)c3OC)C(=O)N2Cc2ccccc2)c(OC)c(C)c1OC` (centres undefined), the TGI in assay [2], in assay [3], in [5], in [10], in assay [6] and in assay [7] was more than 100 µM each time. In assay [8], this compound showed a TGI of more than 100 µM.

The record behind these values is PubChem BioAssay (NCI).
